What all share (experiment): In vitro MMP inhibition, IC50 determination (fluorogenic substrate I)
Common to all, as to assay type: biochemical
Common to all, as to details: substrate (I) 4 μM, room temperature; values not in parenthesis

Experiment [1] has as its target T1, Human recombinant MMP-1 (Homo sapiens, UniProt P03956).
T1 construct: made in house; host or cells: MMP-1-transfected HT-1080 cells (spent media)
T1 sequence (P03956 100-469): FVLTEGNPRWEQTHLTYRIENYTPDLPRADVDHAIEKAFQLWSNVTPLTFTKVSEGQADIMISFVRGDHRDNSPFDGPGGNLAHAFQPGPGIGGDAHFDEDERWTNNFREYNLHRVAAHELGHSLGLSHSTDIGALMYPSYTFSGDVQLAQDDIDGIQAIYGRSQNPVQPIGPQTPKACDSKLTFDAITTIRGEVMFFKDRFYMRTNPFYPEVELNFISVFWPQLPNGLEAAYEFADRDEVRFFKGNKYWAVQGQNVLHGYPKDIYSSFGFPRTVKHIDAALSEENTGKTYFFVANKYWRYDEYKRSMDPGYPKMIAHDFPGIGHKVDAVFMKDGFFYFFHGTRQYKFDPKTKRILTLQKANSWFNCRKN
The procedure: (§1) Several hydroxamates and salts thereof were analyzed in in vitro assays to determine their ability to inhibit the MMP cleavage of peptide substrates. Inhibition (Ki) and IC50 constants were calculated from the assayed hydroxamate-MMP interactions.
(§2) Human recombinant MMP-1, MMP-2, MMP-9, MMP-13, and MMP-14 were used in this assay. All enzymes were prepared in Assignee's laboratories following usual laboratory procedures. Protocols for the preparation and use of these enzymes are available in the scientific literature. See, e.g., Enzyme Nomenclature (Academic Press, San Diego, Calif., 1992) (and the citations therein). See also, Frije et al., J. Biol. Chem., 26(24), 16766-73 (1994).
The MMP-1 proenzyme was purified from the spent media of MMP-1-transfected HT-1080 cells provided by Dr. Harold Welgus of Washington University (St. Louis, Mo.). The protein was purified on a zinc chelating column.
(§3) All MMPs were activated using 4-aminophenylmercuric acetate (“APMA”, Sigma Chemical, St. Louis, Mo.) or trypsin. MMP-9 also was activated using human recombinant MMP-3 (purified in Assignee's laboratory following standard cloning and purification techniques).
(§4) Two fluorogenic, methoxycoumarin-containing polypeptide substrates were used in the MMP inhibition assays:
(§5) MCA-ProLeuGlyLeuDpaAlaArgNH2 (I)
(§6) Here, “Dpa” is 3-(2,4-dinitrophenyl)-L-2,3-diaminopropionyl group, and “MCA” is 7-methoxycoumarin-4-yl acetyl. Substrate (I) was purchased from Baychem (Redwood City, Calif.), and substrate II was prepared Assignee's laboratory. Substrate I was used in the IC50 determination assays, while substrate II was used in the Ki determination assays. In the absence of MMP inhibitory activity, either substrate is cleaved at the Gly-Leu peptide bond. This cleavage separates the highly fluorogenic peptide from the 2,4-dinitrophenyl quencher, thus resulting in increase of fluorescent intensity.
(§7) The stock solutions of the assayed hydroxamates (or salts thereof) were prepared in 1% dimethyl sulfoxide (DMSO). These stock solutions were diluted in Buffer A (100 mM Tris-HCl, 100 mM NaCl, 10 mM CaCl2, 0.05% polyoxyethylene 23 lauryl ether, pH 7.5) to obtain solutions with different hydroxamate concentrations, i.e., assay solutions with different concentrations of the assayed MMP inhibitory compound. The experiment controls contained the same amount of Buffer A/DMSO as the assayed sample, but contained no hydroxamate (or salt thereof).
(§8) The assays from which the IC50 determinations were made were performed as follows. The MMPs were activated with either trypsin or APMA (4-aminophenylmercuric acetate, Sigma Chemical, St. Louis, Mo.). The assayed hydroxamate samples were, incubated in Microfluorrm White Plates (Dynatech, Chantilly, VA) and analyzed on a Perkin Elmer L550 plate reader (Norwalk, Conn.). The excitation wavelength was 328 nm, and the emission wavelength—415 nm. All samples (assayed hydroxamates and controls) were incubated in separate plates at room temperature in the presence of 4 μM of MMP substrate (I). As stated in the previous paragraph, samples containing varying concentrations of the same assayed hydroxamate were prepared. Inhibition was measured as a reduction in fluorescent intensity as a function of MMP inhibitor concentration.

In experiment [2] the target is T2, Human recombinant MMP-2 (Homo sapiens, UniProt P08253).
T2 construct: made in house; host or cells: MMP-2-transfected p2AHT2 cells
T2 sequence (P08253 110-660): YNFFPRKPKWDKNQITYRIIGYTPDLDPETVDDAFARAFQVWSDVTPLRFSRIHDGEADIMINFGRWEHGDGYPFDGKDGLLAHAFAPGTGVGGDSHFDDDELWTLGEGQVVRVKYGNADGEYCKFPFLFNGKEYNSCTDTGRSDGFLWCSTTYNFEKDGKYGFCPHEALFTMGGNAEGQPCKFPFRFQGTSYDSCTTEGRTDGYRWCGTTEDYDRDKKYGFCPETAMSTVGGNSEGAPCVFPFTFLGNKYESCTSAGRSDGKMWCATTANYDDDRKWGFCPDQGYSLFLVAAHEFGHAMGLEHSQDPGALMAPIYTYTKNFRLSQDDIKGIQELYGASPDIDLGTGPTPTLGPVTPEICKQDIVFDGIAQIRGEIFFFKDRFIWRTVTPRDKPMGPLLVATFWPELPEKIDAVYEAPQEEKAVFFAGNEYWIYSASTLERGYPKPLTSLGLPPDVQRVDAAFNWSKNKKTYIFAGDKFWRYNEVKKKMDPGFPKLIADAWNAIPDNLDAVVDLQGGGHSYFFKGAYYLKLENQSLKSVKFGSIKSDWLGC
In short, it runs like this: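 IC50 was derived from the concentration-dependent fall in fluorescence (ex 328, em 415 nm) on Gly-Leu cleavage of 4 μM MCA/Dpa-quenched substrate I. Assays ran at room temperature in pH 7.5 Tris/NaCl/CaCl2/Brij buffer with MMP-2 activated by trypsin or APMA; inhibitors were diluted from 1% DMSO stocks.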

Experiment [3] has as its target T3, Human recombinant MMP-9 (Homo sapiens, UniProt P14780).
T3 construct: made in house; host or cells: MMP-9-transfected HT1080 cells (spent media)
The protocol:
as §1, §2
The MMP-9 proenzyme was purified by gelatin Sepharose chromatography from spent media of MMP-9-transfected HT1080 cells provided by Dr. Howard Welgus of Washington University (St. Louis, Mo.).
as §3, §4, §5, §6, §7, §8

The target in experiment [4] is T4, Human recombinant MMP-13 (Homo sapiens, UniProt P45452).
T4 construct: made in house; host or cells: baculovirus / insect cells
Summed up: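 Fluorescence at 415 nm (excitation 328 nm) reports Gly-Leu cleavage of 4 μM quenched methoxycoumarin peptide substrate I. Human recombinant MMP-13, activated by trypsin or APMA, was incubated at room temperature with varied inhibitor concentrations in pH 7.5 Tris/NaCl/CaCl2 buffer; IC50 derived from reduced fluorescence.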

Experiment [5] concerns the target T5, Human recombinant MMP-14 (Homo sapiens, UniProt P50281).
T5 construct: The catalytic domain enzyme was expressed in E. coli inclusion bodies, solubilized in urea; made in house
The protocol:
as §1, §2
The MMP-14 full length cDNA was provided by Dr. Gregory Goldberg of Washington University (St. Louis, Mo.). The catalytic domain enzyme was expressed in E. coli inclusion bodies, solubilized in urea, purified on a preparative […] reverse phase HPLC column, and then refolded in the presence of zinc acetate and purified for use.
as §3, §4, §5, §6, §7, §8

Counter-ions that a name gives are not always drawn.

T3 sequence (P14780 107-707 limits assumed): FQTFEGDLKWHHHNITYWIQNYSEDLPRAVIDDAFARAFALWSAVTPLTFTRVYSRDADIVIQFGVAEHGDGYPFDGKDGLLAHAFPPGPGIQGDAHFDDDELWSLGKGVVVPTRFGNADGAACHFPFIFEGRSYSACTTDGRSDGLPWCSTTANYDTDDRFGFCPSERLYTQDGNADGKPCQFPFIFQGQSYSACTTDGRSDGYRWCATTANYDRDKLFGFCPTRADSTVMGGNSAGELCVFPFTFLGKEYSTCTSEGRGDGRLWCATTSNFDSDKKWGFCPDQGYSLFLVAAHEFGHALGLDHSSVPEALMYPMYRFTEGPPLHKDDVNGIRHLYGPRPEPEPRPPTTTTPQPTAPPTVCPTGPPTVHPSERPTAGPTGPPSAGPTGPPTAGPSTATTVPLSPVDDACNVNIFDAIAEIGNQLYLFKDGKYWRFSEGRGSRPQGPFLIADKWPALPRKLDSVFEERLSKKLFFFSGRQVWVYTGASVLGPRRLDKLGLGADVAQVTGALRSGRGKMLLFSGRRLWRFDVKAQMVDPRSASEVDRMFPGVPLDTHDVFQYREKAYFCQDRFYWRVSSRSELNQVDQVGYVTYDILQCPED

The IC50 is the concentration at which inhibition is half-maximal. For the compound `COc1ccc(C(=O)NCCCOc2ccc(S(=O)(=O)C3(C(=O)NO)CCN(C4CC4)CC3)cc2)cc1` [Example 18, 1-cyclopropyl-N-hydroxy-4-[[4-[3[(4-methoxybenzoyl)amino]propoxy]phenyl]sulfonyl]-4-piperidinecarboxamide, Monohydrochloride], the IC50 in experiment [1] was greater than 10000 nM; in experiment [2], 537 nM; in experiment [3], 6000 nM; in experiment [4], 1.8 nM; in experiment [5], greater than 10000 nM.
For the compound `CN(CCCOc1ccc(S(=O)(=O)C2(C(=O)NO)CCOCC2)cc1)C(=O)c1ccc(N(C)C)cc1` [Example 19, 4-[[4-[3-[[4-(dimethylamino)benzoyl]methylamino]propoxy]phenyl]sulfonyl]tetrahydro-N-hydroxy-2H-pyran-4-carboxamide], the IC50 in experiment [1] was greater than 10000 nM; in experiment [2], 9000 nM; in experiment [3] it was 5190 nM; in experiment [4] it was 15 nM; in experiment [5] it was greater than 10000 nM.
As to `CN(C)c1ccc(NC(=O)CCCCOc2ccc(S(=O)(=O)C3(C(=O)NO)CCOCC3)cc2)cc1` [Example 20, 4-[[4-[[5-[[4-(dimethylamino)-phenyl]amino]-5-oxopentyl]oxy]phenyl]sulfonyl]tetrahydro-N-hydroxy-2H-pyran-4-carboxamide, Monohydrochloride], the IC50 is greater than 10000 nM in experiment [1]; 1.8 nM in experiment [2]; 498 nM in experiment [3]; 1.8 nM in experiment [4]; greater than 10000 nM in experiment [5].
Regarding `O=C1c2ccccc2C(=O)N1CCCOc1ccc(S(=O)(=O)C2(C(=O)NO)CCOCC2)cc1` [Example 21, 4-[[4-[3-(1,3-dihydro-1,3-dioxo2H-isoindol-2-yl)propoxy]phenyl]sulfonyl]tetrahydro-N-hydroxy-2H-pyran-4-carboxamide], the half-maximal inhibitory concentration (IC50) in experiment [1] is greater than 10000 nM; in experiment [2] it was 450 nM; in experiment [3] it was greater than 10000 nM; in experiment [4] it was 3.5 nM; in experiment [5], greater than 10000 nM.
With `O=C1c2ccccc2CN1CCCOc1ccc(S(=O)(=O)C2(C(=O)NO)CCOCC2)cc1` [Example 22, 4-[[4-[3-(1,3-dihydro-1-oxo-2H-isoindol-2-yl)propoxy]phenyl]sulfonyl]tetrahydro-N-hydroxy-2H-pyran-4-carboxamide], the IC50 is greater than 10000 nM in experiment [1]; 1000 nM in experiment [2]; greater than 10000 nM in experiment [3]; 4.9 nM in experiment [4]; greater than 10000 nM in experiment [5].
Turning to `COc1ccc(/C(CCCCOc2ccc(S(=O)(=O)C3(C(=O)NO)CCOCC3)cc2)=N/O)c(OC)c1` [Example 25], the IC50 in experiment [1] is greater than 10000 nM; in experiment [2], 247 nM; in experiment [3], 8500 nM; in experiment [4], 1.8 nM; in experiment [5], greater than 10000 nM.
Regarding `COc1ccc(C(=O)C(C)CCCOc2ccc(S(=O)(=O)C3(C(=O)NO)CCOCC3)cc2)cc1` (stereo not shown) [Example 26, tetrahydro-N-hydroxy-4-[[4-[[5-(4-methyloxyphenyl)-4-methyl-5-oxopentyl]oxy]phenyl]sulfonyl]-2H-pyran-4-carboxamide], the IC50 is greater than 10000 nM in experiment [1]; 52 nM in experiment [2]; 4430 nM in experiment [3]; 3.4 nM in experiment [4]; greater than 10000 nM in experiment [5].
For `COc1ccc(/C(C#N)=C/CCCOc2ccc(S(=O)(=O)C3(C(=O)NO)CCOCC3)cc2)cc1` [Example 27, 4-[[4-[[(4Z)-5-cyano-5-(4-methoxyphenyl)-4-pentenyl]oxy]phenyl]sulfonyl]tetrahydro-N-hydroxy-2H-pyran-4-carboxamide], the IC50 is greater than 10000 nM in experiment [1]; 83.9 nM in experiment [2]; 9370 nM in experiment [3]; 0.2 nM in experiment [4]; greater than 10000 nM in experiment [5].
On to `COc1ccc(/C(C)=C/CCCOc2ccc(S(=O)(=O)C3(C(=O)NO)CCOCC3)cc2)cc1` [Example 28, tetrahydro-N-hydroxy-4-[[4[[(4E)-5-(4-methoxyphenyl)-4-hexenyl]oxy]phenyl]sulfonyl]-2H-pyran-4-carboxamide], for which the half-inhibitory concentration (IC50) in experiment [1] is greater than 10000 nM; in experiment [2] it was 76.4 nM; in experiment [3], 3710 nM; in experiment [4] it was 7 nM; in experiment [5] it was greater than 10000 nM.
Regarding `COc1ccc(-c2coc(CCCOc3ccc(S(=O)(=O)C4(C(=O)NO)CCOCC4)cc3)n2)cc1` [Example 30, tetrahydro-N-hydroxy-4-[[4-[3-[4-(4-methoxyphenyl)-2-oxazolyl]propoxy]phenyl]sulfonyl]-2Hpyran-4-carboxamide], the half-inhibitory concentration (IC50) was greater than 10000 nM in experiment [1]; 22.6 nM in experiment [2]; 809 nM in experiment [3]; 1.3 nM in experiment [4]; greater than 10000 nM in experiment [5].
As to `Cc1ccccc1-c1nnc(CCCOc2ccc(S(=O)(=O)C3(C(=O)NO)CCOCC3)cc2)o1` [Example 32, tetrahydro-N-hydroxy-4-[[4-[3-[5-(2-methylphenyl)-1,3,4-oxadiazol-2-yl]propoxy]phenyl]sulfonyl]-2H-pyran-4-carboxamide], the IC50 in experiment [1] is greater than 10000 nM; in experiment [2], 218 nM; in experiment [3] it was 4080 nM; in experiment [4], 0.8 nM; in experiment [5], greater than 10000 nM.

Source of the values: patent US20040024024A1, “Aromatic sulfone hydroxamates and their use as protease inhibitors” (priority 2001, published 2004).
